US20040010036A1, “N,N, -Substituted s-Aryl-Isothioureas, N,N,N, -Substituted s-Aryl-Isothioureas and combinatorial libraries thereof” (priority 2002, published 2004)

Each compound was assayed on Streptococcus pyogenes (ATCC# 97-03 14289) (assay: Anti-microbial screen (percent inhibition of growth, OD 570 nm)). Settings: Spy4H: Streptococcus pyogenes, read at 4 hours, OD 570 nm; Conc 0.1776 mg ml.
Type: cell-based
Protocol: Streptococcus pyogenes (ATCC# 97-03 14289) was grown in Todd Hewitt Broth (THB) (Difco Laboratories #0492-17-6) overnight until reaching an optical density of (OD=0.636@570 nm) by reading 0.1 ml in a 96 well microtiter plate in a Molecular Devices Thermomax. This preparation was kept frozen as stocks in 30% v/v glycerol in 1.5 ml aliquots at […] until use. Prior to experiments, 6 ml aliquots were thawed and diluted into 50 ml 2×THB. 60 ul of this dilution was added to 92 wells of microtiter plate. To three wells THB (200 ul) was added to serve as a blank and a sterility control. Test compounds in DMSO and appropriate concentrations of DMSO were added to Growth/Solvent Controls at 0 time. Plates were read at 0 time at 570 nm in the Molecular Devices plate reader to obtain compounds correction factors for insoluble or colored compounds. Plates were read again at 4 hours.
Percent inhibition is calculated with the following formula:
Color correct=O.D. 0 hr - Blank 0 hr)-(Solvent Control Ohr - Blank 0 hr) [formula]
`Cc1ccc(CN(Cc2ccc(O)cc2)/C(=N\c2ccc(C(F)(F)F)cc2)Sc2ccc(C)cc2C)cc1` [Cmpd 7] showed an inhibition of growth at 177.6 µg/mL of 63.7%. Compound `Cc1ccc(CN(Cc2ccc(O)cc2)/C(=N/c2ccc(Cl)c(Cl)c2)Sc2ccc(C)cc2C)cc1` [Cmpd 8] has an inhibition of growth at 177.6 µg/mL of 57.5%. `Cc1ccc(CN(Cc2ccc(O)cc2)/C(=N/c2cc(Cl)cc(Cl)c2)Sc2ccc(C)cc2C)cc1` [Cmpd 13] gave an inhibition of growth at 177.6 µg/mL of 65.7%. In the case of `Cc1ccc(CN(Cc2ccc(O)cc2)/C(=N\c2ccc(Cl)c([N+](=O)[O-])c2)Sc2ccc(C)cc2C)cc1` [Cmpd 23], the inhibition of growth at 177.6 µg/mL is reported as 61.3%. Compound `Cc1ccc(CN(Cc2ccc(O)cc2)/C(=N/c2ccccc2[N+](=O)[O-])Sc2ccc(C)cc2C)cc1` [Cmpd 26] has an inhibition of growth at 177.6 µg/mL of 58.1%. `Cc1ccc(CN(Cc2ccc(O)cc2)/C(=N\c2ccc(Cl)c(C(F)(F)F)c2)Sc2ccc(C)cc2C)cc1` [Cmpd 33] gave an inhibition of growth at 177.6 µg/mL of 57.8%. In the case of `COc1cccc(S/C(=N\Cc2ccc(F)cc2)N(Cc2ccc(O)cc2)Cc2ccc(Cl)c(Cl)c2)c1` [Cmpd 44], the inhibition of growth at 177.6 µg/mL is reported as 67.5%. For `COc1cccc(S/C(=N\c2cccc(C(F)(F)F)c2)N(Cc2ccc(O)cc2)Cc2ccc(Cl)c(Cl)c2)c1` [Cmpd 46], the inhibition of growth at 177.6 µg/mL was 60.6%. With `COc1cccc(S/C(=N\c2ccc(C(F)(F)F)cc2)N(Cc2ccc(O)cc2)Cc2ccc(Cl)c(Cl)c2)c1` [Cmpd 47] the inhibition of growth at 177.6 µg/mL was 85.8%. Work on `COc1cccc(S/C(=N\c2cc(Cl)cc(Cl)c2)N(Cc2ccc(O)cc2)Cc2ccc(Cl)c(Cl)c2)c1` [Cmpd 53] yielded an inhibition of growth at 177.6 µg/mL of 70.2%. `COc1cccc(S/C(=N\c2ccc(Cl)c([N+](=O)[O-])c2)N(Cc2ccc(O)cc2)Cc2ccc(Cl)c(Cl)c2)c1` [Cmpd 63] gave an inhibition of growth at 177.6 µg/mL of 66.8%. With `COc1cccc(S/C(=N/c2ccc(Cl)c(C(F)(F)F)c2)N(Cc2ccc(O)cc2)Cc2ccc(Cl)c(Cl)c2)c1` [Cmpd 73] the inhibition of growth at 177.6 µg/mL was 85.8%. In the case of `COCCN(Cc1cccc(O)c1)/C(=N\c1cccc(F)c1)Sc1ccc(C)cc1C` [Cmpd 83], the inhibition of growth at 177.6 µg/mL is reported as 70.9%. Compound `COCCN(Cc1cccc(O)c1)/C(=N\c1ccc(F)cc1F)Sc1ccc(C)cc1C` [Cmpd 85] has an inhibition of growth at 177.6 µg/mL of 82.3%. Compound `COCCN(Cc1cccc(O)c1)/C(=N\c1ccc(C)cc1)Sc1ccc(C)cc1C` [Cmpd 90] has an inhibition of growth at 177.6 µg/mL of 81.3%. In the case of `COCCN(Cc1cccc(O)c1)/C(=N\c1cccc(Cl)c1)Sc1ccc(C)cc1C` [Cmpd 92], the inhibition of growth at 177.6 µg/mL is reported as 59.8%. For `CCc1cccc(/N=C(/Sc2ccc(C)cc2C)N(CCOC)Cc2cccc(O)c2)c1` [Cmpd 98], the inhibition of growth at 177.6 µg/mL was 69.9%. `COCCN(Cc1cccc(O)c1)/C(=N\c1ccc(Cl)c([N+](=O)[O-])c1)Sc1ccc(C)cc1C` [Cmpd 103] gave an inhibition of growth at 177.6 µg/mL of 58.9%. `COCCN(Cc1cccc(O)c1)/C(=N\c1ccc(Cl)c(C(F)(F)F)c1)Sc1ccc(C)cc1C` [Cmpd 113] gave an inhibition of growth at 177.6 µg/mL of 59.8%. For `COc1cccc(S/C(=N/c2ccc(C(F)(F)F)cc2)N(Cc2ccc(C)cc2)Cc2ccc(O)cc2)c1` [Cmpd 127], the inhibition of growth at 177.6 µg/mL was 61.5%. For `COc1cccc(S/C(=N\c2cc(Cl)cc(Cl)c2)N(Cc2ccc(C)cc2)Cc2ccc(O)cc2)c1` [Cmpd 133], the inhibition of growth at 177.6 µg/mL was 94.3%. `COc1cccc(S/C(=N/c2ccc(Cl)c([N+](=O)[O-])c2)N(Cc2ccc(C)cc2)Cc2ccc(O)cc2)c1` [Cmpd 143] was tested, and the inhibition of growth at 177.6 µg/mL was 93.6%. `COc1cccc(S/C(=N/c2ccc(Cl)c(C(F)(F)F)c2)N(Cc2ccc(C)cc2)Cc2ccc(O)cc2)c1` [Cmpd 153] was tested, and the inhibition of growth at 177.6 µg/mL was 70.6%. `Cc1ccc(S/C(=N\c2ccc(C(F)(F)F)cc2)N(Cc2ccc(O)cc2)Cc2cccc(Cl)c2)cc1` [Cmpd 167] gave an inhibition of growth at 177.6 µg/mL of 71%. `Cc1ccc(S/C(=N\c2cc(Cl)cc(Cl)c2)N(Cc2ccc(O)cc2)Cc2cccc(Cl)c2)cc1` [Cmpd 173] was tested, and the inhibition of growth at 177.6 µg/mL was 70.7%. Compound `Cc1ccc(S/C(=N\c2ccc(Cl)c([N+](=O)[O-])c2)N(Cc2ccc(O)cc2)Cc2cccc(Cl)c2)cc1` [Cmpd 183] has an inhibition of growth at 177.6 µg/mL of 64.8%. With `COc1ccc(C)cc1/N=C(\Sc1ccc(C)cc1)N(Cc1ccc(O)cc1)Cc1cccc(Cl)c1` [Cmpd 189] the inhibition of growth at 177.6 µg/mL was 61.8%. With `Cc1ccc(CN(Cc2cccc(O)c2)/C(=N/Cc2ccc(F)cc2)Sc2ccc(C)cc2C)cc1` [Cmpd 204] the inhibition of growth at 177.6 µg/mL was 69.1%. `Cc1ccc(CN(Cc2cccc(O)c2)/C(=N\c2ccc(C(F)(F)F)cc2)Sc2ccc(C)cc2C)cc1` [Cmpd 207] showed an inhibition of growth at 177.6 µg/mL of 95.9%. Work on `Cc1ccc(CN(Cc2cccc(O)c2)/C(=N/c2ccccc2[N+](=O)[O-])Sc2ccc(C)cc2C)cc1` [Cmpd 226] yielded an inhibition of growth at 177.6 µg/mL of 74.4%. `COc1ccc(C)cc1/N=C(\Sc1ccc(C)cc1C)N(Cc1ccc(C)cc1)Cc1cccc(O)c1` [Cmpd 229] gave an inhibition of growth at 177.6 µg/mL of 65.8%. Work on `Cc1ccc(CN(Cc2cccc(O)c2)/C(=N\c2ccc(Cl)c(C(F)(F)F)c2)Sc2ccc(C)cc2C)cc1` [Cmpd 233] yielded an inhibition of growth at 177.6 µg/mL of 60.5%. With `Cc1ccc(S/C(=N/c2ccc(C(F)(F)F)cc2)N(Cc2ccc(O)cc2)CC(C)C)cc1` [Cmpd 247] the inhibition of growth at 177.6 µg/mL was 60.3%. `Cc1ccc(S/C(=N/c2cc(Cl)cc(Cl)c2)N(Cc2ccc(O)cc2)CC(C)C)cc1` [Cmpd 253] gave an inhibition of growth at 177.6 µg/mL of 66.5%.

Same assay, conditions: Streptococcus pyogenes; Assay Spy4H; Conc 0.1776 mg ml; plates read at 570 nm at 0 time and at 4 hours
`COc1ccc(C)cc1/N=C(\Sc1ccc(C)cc1C)N(Cc1ccc(C)cc1)Cc1ccc(O)cc1` [Cmpd 29] showed an inhibition of growth at 177.6 µg/mL of 53.7%. `Cc1ccc(CN(Cc2ccc(O)cc2)/C(=N/c2ccc(F)c(F)c2)Sc2ccc(C)cc2C)cc1` [Cmpd 36] gave an inhibition of growth at 177.6 µg/mL of 56.8%. In the case of `COc1cccc(S/C(=N\c2cccc(Cl)c2)N(Cc2ccc(O)cc2)Cc2ccc(Cl)c(Cl)c2)c1` [Cmpd 52], the inhibition of growth at 177.6 µg/mL is reported as 52.6%. Work on `COc1cccc(S/C(=N/c2ccc(OC(F)(F)F)cc2)N(Cc2ccc(O)cc2)Cc2ccc(Cl)c(Cl)c2)c1` [Cmpd 75] yielded an inhibition of growth at 177.6 µg/mL of 52.3%. Compound `COCCN(Cc1cccc(O)c1)/C(=N\c1ccc(F)c(Cl)c1)Sc1ccc(C)cc1C` [Cmpd 94] has an inhibition of growth at 177.6 µg/mL of 54%. For `COCCN(Cc1cccc(O)c1)/C(=N\c1cc(C)ccc1OC)Sc1ccc(C)cc1C` [Cmpd 109], the inhibition of growth at 177.6 µg/mL was 56.3%. Work on `COc1cccc(S/C(=N\Cc2ccc(F)cc2)N(Cc2ccc(C)cc2)Cc2ccc(O)cc2)c1` [Cmpd 124] yielded an inhibition of growth at 177.6 µg/mL of 55.6%. With `Cc1ccc(S/C(=N\c2ccc(Cl)c(Cl)c2)N(Cc2ccc(O)cc2)Cc2cccc(Cl)c2)cc1` [Cmpd 168] the inhibition of growth at 177.6 µg/mL was 49.5%. With `Cc1ccc(S/C(=N\c2ccccc2[N+](=O)[O-])N(Cc2ccc(O)cc2)Cc2cccc(Cl)c2)cc1` [Cmpd 186] the inhibition of growth at 177.6 µg/mL was 56.5%. `Cc1ccc(CN(Cc2cccc(O)c2)/C(=N/Cc2cccc(C)c2)Sc2ccc(C)cc2C)cc1` [Cmpd 202] gave an inhibition of growth at 177.6 µg/mL of 51.9%. With `Cc1ccc(CN(Cc2cccc(O)c2)/C(=N/c2cc(Cl)cc(Cl)c2)Sc2ccc(C)cc2C)cc1` [Cmpd 213] the inhibition of growth at 177.6 µg/mL was 57.1%. Work on `Cc1ccc(S/C(=N/Cc2ccccc2)N(Cc2ccc(O)cc2)CC(C)C)cc1` [Cmpd 241] yielded an inhibition of growth at 177.6 µg/mL of 49.8%. `Cc1ccc(S/C(=N/Cc2ccc(F)cc2)N(Cc2ccc(O)cc2)CC(C)C)cc1` [Cmpd 244] gave an inhibition of growth at 177.6 µg/mL of 51.6%. `Cc1ccc(S/C(=N/c2ccc(Cl)c(Cl)c2)N(Cc2ccc(O)cc2)CC(C)C)cc1` [Cmpd 248] showed an inhibition of growth at 177.6 µg/mL of 55%. `Cc1ccc(S/C(=N/c2ccc(F)c(Cl)c2)N(Cc2ccc(O)cc2)CC(C)C)cc1` [Cmpd 254] gave an inhibition of growth at 177.6 µg/mL of 49.2%. Work on `Cc1ccc(S/C(=N/c2ccc(Cl)c([N+](=O)[O-])c2)N(Cc2ccc(O)cc2)CC(C)C)cc1` [Cmpd 263] yielded an inhibition of growth at 177.6 µg/mL of 53.8%.
